This is an account of results in publication PMC6799938, “Determinants of drug entry into the developing brain” (F1000Research, 2019).

Where two headings read alike, the source gives them in different places.

The conditions of data set [1]: Sprague Dawley, rat, in vivo.
The nature of data set [2]: Entry of "passive" markers into brain and CSF. How it is done:
(§1) Experimental procedure. In acute drug experiments, a single dose was injected that included traces of [ ^3H]-labelled drug (20µCi adults, 2µCi newborns). In chronic experiments, doses of unlabelled drug were given twice daily (09.00 and 17.00h) for four days before a final injection on the 5 ^th day identical to acute experiments. In passive marker experiments, all dosing was acute and contained only the [ ^3H]- or [ ^14C]-labelled compound (20µCi adults, 2µCi newborns).
(§2) In all experiments involving postnatal animals, injections were intraperitoneal (i.p.). In pregnant animals for fetal drug entry studies, the final injection of the radiolabelled marker was given intravenously (i.v.), as the peritoneal cavity required opening prior to the sampling period to gain access to the fetuses. For passive markers (L-glucose, sucrose and glycerol), fetal animals were individually injected i.p. while still within the uterine horn. All experiments took place between 09.00 and 15.00h. All pregnancy studies were completed with a single treatment group on one day. Postnatal groups were conducted with a single treatment group on one day or with the chronic group completed prior to the acute group.
(§3) Sample collection. Samples were collected 30 minutes after the final injection. This duration was chosen partly to limit any potential metabolism of the drugs and markers used but also to allow enough time for i.p. injected markers to reach the blood stream and, from there, to access the brain parenchyma across brain barriers, as well as to limit the CSF sink effect that could influence drug levels ( [Bito et al., 1966]). Thirty minutes is also within the half-life of these drugs ( [Adedoyin et al., 1987]; [Harrison & Gibaldi, 1976]; Lin & Levy, 1963). The other reason a 30-minute duration was chosen is that in the case of exposed fetal rat pups, it is difficult to maintain them in a reasonable physiological state for long periods due to deterioration of placental perfusion. Therefore, for comparative purposes, all studies were conducted at the same time.
For adult and newborn (P4) experiments, animals were terminally anaesthetized using inhaled isofluorane (IsoFlo 100% w/w, Abbott Laboratories). Blood samples were collected from the right cardiac ventricle, CSF from the cisterna magna (Habgood et al., 1992) and cortical segments of brain tissue dorsal to the ventricle of the frontal/parietal lobes, as previously described ( [Koehn et al., 2019]). Blood and CSF sampling from the P4 animals was terminal and would thus not have affected the physiological state of the animals during the experiment.
Sample preparation. Samples were processed immediately after collection. Blood was centrifuged at 7000rpm for five minutes and the plasma separated. CSF samples were examined microscopically for traces of red blood cells and discarded if contaminated (Habgood et al., 1992). In all experiments, the radioactivity in the injectate was also measured to confirm the uniformity of the injected material. All samples were weighed and transferred into scintillation vials. Soluene350 (0.5ml, PerkinElmer) was added to the brain samples. After being incubated at 36°C overnight to allow the tissue to solubilize, two drops of glacial acetic acid (Sigma) were added to neutralize the strongly alkaline Soluene350. All samples were then mixed with 5ml of scintillation fluid (Emulsifier-safe, PerkinElmer) before being transferred into the liquid scintillation counter (Tri-Carb 4910 TR, PerkinElmer) to count radioactivity disintegrations per minute (DPM) over five minutes each with luminescence correction on. Blank vials containing the same tissues without radioactivity were also counted alongside the samples to establish the level of background counts, which were always subtracted from the radioactivity counts of the corresponding experimental samples.
BrainorCSFtransfer=BrainorCSFDPM/μl/plasmaDPM/μl×100%

For data set [3] the following is noted: for Brain radioactivity level / CSF radioactivity level / Plasma radioactivity level: mean. Here is the method:
Animals. Sprague Dawley rats were supplied by the University of Melbourne Biological Research Facility and housed in groups of 2–4 (adult) or full litters per cage (25cm x 35cm x 25cm on Breeders Choice paper bedding, made from 99% recycled paper; it is biodegradable with no added chemicals), on a 12 h light/dark cycle with ad libitum access to food (dry pellets of a fixed formulation diet for laboratory rats and mice fortified with vitamins and minerals to meet the requirements of breeding animals after the diet is autoclaved or irradiated, supplied by Speciality Feeds, Western Australia) and water. Age groups investigated (at treatment completion) were time mated pregnant females at E19 (350-400g body weight), postnatal pups at P4 and non-pregnant female adults (175-230g body weight). E19 was chosen because this is a stage of development when adequate volumes of blood and CSF can be obtained for analysis from fetal rats without pooling ( [Dziegielewska et al., 1981]) and individual pups can be injected intraperitoneally while still inside the uterine horn and kept viable for periods of time. P4 was chosen because its stage of brain development is similar to that of very prematurely born but viable human infants of 22–24 weeks gestation ( [Clancy et al., 2001]). Animal numbers were based on previous experience of such experiments and were the minimum number required to detect a significant difference between groups at P <0.05.
Drug doses. Drug doses were selected based on use in clinical practice ( [Australian Medicines Handbook, 2019]) and adjusted for body weight.
as §1, §2, §3
For adult and newborn (P4) experiments, animals were terminally anaesthetized using inhaled isofluorane (IsoFlo 100% w/w, Abbott Laboratories).

Where [4] appears, read: passive marker, E19, 60-minute, separate experimentation.
[5] abbreviates: passive marker, E19, 30 minutes after i.p. injection.
Setting [6] is: passive marker, P4, 30 minutes after i.p. injection.
Where [7] appears, read: passive marker, adults, 30 minutes after i.p. injection.
[8] abbreviates: E19 fetuses, acute, 30 min - […] after administration.
The mark [9] stands for this setting: E19 fetuses, chronic (twice daily over five days), 30 min - […] after final dose.
The mark [10] stands for this setting: P4, chronic i.p. (twice daily over five days), 30 min after final dose.
The mark [11] stands for this setting: adult, chronic i.p. (twice daily over five days), 30 min after final dose.

`C[C@H]1O[C@@H](O[C@H]2[C@@H](O)C[C@H](O[C@H]3[C@@H](O)C[C@H](O[C@H]4CC[C@@]5(C)[C@H](CC[C@@H]6[C@@H]5C[C@@H](O)[C@]5(C)[C@@H](C7=CC(=O)OC7)CC[C@]65O)C4)O[C@@H]3C)O[C@@H]2C)C[C@H](O)[C@@H]1O` [Digoxin]: the “restriction of transfer by the placenta” value in data set [1] is listed as “about 60%”.

As to `OCC(O)CO` [Glycerol], in data set [2] (setting [4]), the CSF concentration ratio is approximately 100% and the brain concentration ratio entry is given as “approximately 80%”. Also, in data set [2] (setting [5]), the Brain/Plasma Ratio is 46.8% and the CSF/Plasma Ratio is 46.8%. Moreover, in data set [2] (setting [6]), the Brain/Plasma Ratio was 82.2% and the CSF/Plasma Ratio worked out at 95%. Moreover, in data set [2] (setting [7]), the Brain/Plasma Ratio is given as 85.5% and the CSF/Plasma Ratio came out at 103.9%. Besides, the “Fetal/Maternal plasma concentration ratio, range” value in data set [1] was “(68.1 - 134.7) %”.

With `CC(=O)Nc1ccc(O)cc1` [Paracetamol], the “transfer from maternal blood to fetal brain” value in data set [3] (E19, acute) is given as 28%. Moreover, the Brain radioactivity level was 39.6 DPM/µg in data set [3] (setting [8]); 146.1 DPM/µg in data set [3] (setting [9]); 117.5 DPM/µg in data set [3] (P4, acute i.p., 30 min); 84.4 DPM/µg in data set [3] (setting [10]); 27.3 DPM/µg in data set [3] (adult, acute i.p., 30 min); 17.6 DPM/µg in data set [3] (setting [11]). The CSF radioactivity level in data set [3] (setting [8]) was determined as 35.3 DPM/µl; in data set [3] (setting [9]) it was 119.0 DPM/µl; in data set [3] (P4, acute i.p., 30 min) it was 96.5 DPM/µl; in data set [3] (setting [10]), 71.0 DPM/µl; in data set [3] (adult, acute i.p., 30 min), 25.4 DPM/µl; in data set [3] (setting [11]), 14.9 DPM/µl. Moreover, the Plasma radioactivity level is given as 57.8 DPM/µl in data set [3] (setting [8]); 140.5 DPM/µl in data set [3] (setting [9]); 193.6 DPM/µl in data set [3] (P4, acute i.p., 30 min); 166.8 DPM/µl in data set [3] (setting [10]); 90.1 DPM/µl in data set [3] (adult, acute i.p., 30 min); 83.3 DPM/µl in data set [3] (setting [11]). Further, the entries for the “transfer into maternal brain (brain/maternal blood)” value in data set [3] (acute) and in data set [3] (chronic (five days of twice-daily dosing)) were 30% and 21%, respectively.

Regarding `OC[C@H]1O[C@@](CO)(O[C@H]2O[C@H](CO)[C@@H](O)[C@H](O)[C@H]2O)[C@@H](O)[C@@H]1O` [sucrose, Sucrose], in data set [2] (rat, in vivo), the CSF/Plasma Ratio entry is reported as “very low”. Moreover, in data set [2] (rat, in vivo, 0.5 h), the Brain/Plasma Ratio entry is “very low”.
